Source: PubChem BioAssay AID298 (DTP/NCI, 2004)
Several values for one entry are separate records, joined by “and”; a condition that tells them apart may be missing. Identical values can stand only once. Records with an inconclusive call do not appear.

Test system: MX-1 breast xenograft, intrarenal, nude mice, tumor weight
Experiment: NCI In Vivo Anticancer Drug Screen. Data for tumor model Human Mammary Carcinoma MX-1 Xenograft (intrarenal inoculation) in NU/NU BALB/C (nude) mice
Conditions: endpoint: mean tumor weight change, higher = larger tumour
Method in brief: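 Compounds were given to mice carrying transplanted tumors, and tumor size or survival was measured. Each value is the treated-group measurement (T) divided by the vehicle-treated control-group measurement (C).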

[1] = dose: 100.0 mg/kg/injection, schedule: Q04DX003 (ip), vehicle: saline with Tween-80
[2] = dose: 200.0 mg/kg/injection, schedule: Q04DX003 (ip), vehicle: saline with Tween-80
[3] = dose: 200.0 mg/kg/injection, schedule: Q01DX010 (sc), vehicle: Klucel (hydroxypropylcellulose) (HPC)
[4] = dose: 400.0 mg/kg/injection, schedule: Q01DX010 (sc), vehicle: Klucel (hydroxypropylcellulose) (HPC)
[5] = dose: 2.0 mg/kg/injection, schedule: Q04DX003 (ip), vehicle: saline with Tween-80
[6] = dose: 300.0 mg/kg/injection, schedule: Q04DX003 (sc), vehicle: saline with Tween-80
[7] = dose: 600.0 mg/kg/injection, schedule: Q04DX003 (sc), vehicle: saline with Tween-80
[8] = dose: 1200.0 mg/kg/injection, schedule: Q04DX003 (sc), vehicle: saline with Tween-80
[9] = dose: 150.0 mg/kg/injection, schedule: Q04DX003 (ip), vehicle: saline

For O=P1(NCCCl)OCCCN1CCCl (centres undefined), the T/C (dose: 150.0 mg/kg/injection, schedule: Q04DX003 (sc), vehicle: saline) was -32 % of control.
For CC(=O)/C(=C\c1ccc(/C=C(\C(C)=O)C(=O)CCN(C)C)cc1)C(=O)CCN(C)C, the T/C [1] was 122 % of control and the T/C [2] was 90 % of control.
For N#CC(C#N)=C/C=C/c1cccc([N+](=O)[O-])c1, the T/C [3] was 176 % of control and the T/C [4] was 214 % of control.
Cc1cc(N(CCOS(C)(=O)=O)CCOS(C)(=O)=O)ccc1C=Nc1ccc(-c2nc(Cc3ccccc3)sc2C)cc1 was tested, and the T/C (dose: 50.0 mg/kg/injection, schedule: Q01DX010 (sc), vehicle: Klucel (hydroxypropylcellulose) (HPC)) was -72 % of control, the T/C (dose: 100.0 mg/kg/injection, schedule: Q01DX010 (sc), vehicle: Klucel (hydroxypropylcellulose) (HPC)) was -60 % of control and the T/C [3] was -90 % of control. The T/C [4] was -86 % of control.
In the case of CC[C@@]1(O)C(=O)OCc2c1cc1n(c2=O)Cc2cc3c(N)cccc3nc2-1, the T/C (dose: 0.72 mg/kg/injection, schedule: Q04DX003 (ip), vehicle: saline with Tween-80) is reported as 6 % of control, the T/C (dose: 1.0 mg/kg/injection, schedule: Q04DX003 (ip), vehicle: saline with Tween-80) is reported as -97 % of control and the T/C (dose: 1.2 mg/kg/injection, schedule: Q04DX003 (ip), vehicle: saline with Tween-80) is reported as -30 % of control. The T/C [5] was -92 % of control and -100 % of control and the T/C (dose: 3.33 mg/kg/injection, schedule: Q04DX003 (ip), vehicle: saline with Tween-80) was -100 % of control.
For Nc1ccc2ccc(N)cc2c1, the T/C (dose: 150.0 mg/kg/injection, schedule: Q04DX003 (ip), vehicle: saline with Tween-80) was 75 % of control and the T/C (dose: 300.0 mg/kg/injection, schedule: Q04DX003 (ip), vehicle: saline with Tween-80) was 65 % of control.
COC(=O)CC(N)C(=O)O (centres undefined) was tested, and the T/C [6] was 78 % of control, the T/C [7] was 121 % of control and the T/C [8] was 99 % of control. For the same compound, the T/C (dose: 2400.0 mg/kg/injection, schedule: Q04DX003 (sc), vehicle: saline with Tween-80) was 101 % of control.
ClCCCN1CCCCC1CCl (centres undefined) was tested, and the T/C (dose: 6.25 mg/kg/injection, schedule: Q04DX003 (sc), vehicle: saline) was 53 % of control, the T/C (dose: 12.5 mg/kg/injection, schedule: Q04DX003 (sc), vehicle: saline) was 3 % of control and the T/C (dose: 25.0 mg/kg/injection, schedule: Q04DX003 (sc), vehicle: saline) was -13 % of control.
N[C@@H](Cc1ccc(N(CCCl)CCCl)cc1)C(=O)O was tested, and the T/C (dose: 1.0 mg/kg/injection, schedule: Q01DX010 (sc), vehicle: saline) was 1 % of control and 3 % of control, the T/C (dose: 1.0 mg/kg/injection, schedule: Q04DX003 (sc), vehicle: saline) was 88 % of control and the T/C (dose: 1.5 mg/kg/injection, schedule: Q04DX003 (sc), vehicle: saline) was 49 % of control. For the same compound, the T/C (dose: 2.0 mg/kg/injection, schedule: Q01DX010 (sc), vehicle: saline) was -85 % of control and -79 % of control, the T/C [5] was -48 % of control and -38 % of control and the T/C (dose: 2.0 mg/kg/injection, schedule: Q04DX003 (sc), vehicle: saline) was 17 % of control. The T/C (dose: 3.0 mg/kg/injection, schedule: Q04DX003 (sc), vehicle: saline) was 3 % of control, the T/C (dose: 4.0 mg/kg/injection, schedule: Q01DX010 (sc), vehicle: saline) was -92 % of control and -70 % of control and the T/C (dose: 4.0 mg/kg/injection, schedule: Q04DX003 (ip), vehicle: saline with Tween-80) was -94 % of control and -93 % of control. The T/C (dose: 4.0 mg/kg/injection, schedule: Q04DX003 (sc), vehicle: saline) was -9 % of control, the T/C (dose: 6.0 mg/kg/injection, schedule: Q04DX003 (sc), vehicle: saline) was -87 % of control and the T/C (dose: 8.0 mg/kg/injection, schedule: Q01DX010 (sc), vehicle: saline) was -87 % of control. The T/C (dose: 8.0 mg/kg/injection, schedule: Q04DX003 (ip), vehicle: saline with Tween-80) was -100 % of control and -99 % of control, the T/C (dose: 8.0 mg/kg/injection, schedule: Q04DX003 (sc), vehicle: saline) was -89 % of control and the T/C (dose: 12.0 mg/kg/injection, schedule: Q04DX003 (sc), vehicle: saline) was -96 % of control.
For CCN(CC)Cc1cc2[nH]c3c4ccc(Cl)cc4ncc3c2cc1OC, the T/C (dose: 75.0 mg/kg/injection, schedule: Q04DX003 (sc), vehicle: saline with Tween-80) was 92 % of control and the T/C [6] was 73 % of control.
For CN(C)CCC(=O)C(=Cc1ccc(O)cc1)C(=O)CCN(C)C, the T/C (dose: 75.0 mg/kg/injection, schedule: Q04DX003 (ip), vehicle: saline) was 90 % of control and the T/C [9] was 124 % of control.
For CCc1nc(N)nc(N)c1-c1ccc(Cl)c(N=[N+]=[N-])c1, the T/C (dose: 67.0 mg/kg/injection, schedule: Q04DX003 (ip), vehicle: water) was 85 % of control.
CC(=O)OCC1OC([S-])C(OC(C)=O)C(OC(C)=O)C1OC(C)=O.CC[PH+](CC)CC.CC[PH+](CC)CC.[Au].[Au] (centres undefined) was tested, and the T/C (dose: 3.13 mg/kg/injection, schedule: Q04DX003 (ip), vehicle: Klucel (hydroxypropylcellulose) (HPC)) was 110 % of control and the T/C (dose: 12.5 mg/kg/injection, schedule: Q04DX003 (ip), vehicle: Klucel (hydroxypropylcellulose) (HPC)) was 73 % of control.
In the case of O=P(O)(NCCCl)NCCCl, the T/C (dose: 37.5 mg/kg/injection, schedule: Q04DX003 (sc), vehicle: saline) is reported as 31 % of control.
In the case of C=CCOc1cc2c(cc1C(C)c1ccc(OC)cc1)OCO2 (centres undefined), the T/C (dose: 75.0 mg/kg/injection, schedule: Q04DX003 (ip), vehicle: Klucel (hydroxypropylcellulose) (HPC)) is reported as 73 % of control, the T/C (dose: 150.0 mg/kg/injection, schedule: Q04DX003 (ip), vehicle: Klucel (hydroxypropylcellulose) (HPC)) is reported as 91 % of control and the T/C (dose: 300.0 mg/kg/injection, schedule: Q04DX003 (ip), vehicle: Klucel (hydroxypropylcellulose) (HPC)) is reported as 94 % of control.
For CCNC=O, the T/C (dose: 200.0 mg/kg/injection, schedule: Q01DX010 (sc), vehicle: saline) was 85 % of control, the T/C (dose: 400.0 mg/kg/injection, schedule: Q01DX010 (sc), vehicle: saline) was 70 % of control and the T/C (dose: 800.0 mg/kg/injection, schedule: Q01DX010 (sc), vehicle: saline) was 27 % of control.
With O=C(Oc1ccccc1)c1cc(O)c(O)c(O)c1 the T/C [9] was 101 % of control and the T/C (dose: 300.0 mg/kg/injection, schedule: Q04DX003 (ip), vehicle: saline) was 55 % of control.
In the case of COc1cc(C(CC(C)=O)c2cc3c(cc2OC(C)=O)OCO3)cc(OC)c1OC (centres undefined) (tested in a mixture with another compound), the T/C (dose: 50.0 mg/kg/injection, schedule: Q04DX003 (ip), vehicle: saline with Tween-80) is reported as 59 % of control, the T/C (dose: 72.0 mg/kg/injection, schedule: Q04DX003 (ip), vehicle: saline with Tween-80) is reported as 103 % of control and the T/C [1] is reported as 34 % of control. For the same compound, the T/C (dose: 120.0 mg/kg/injection, schedule: Q04DX003 (ip), vehicle: saline with Tween-80) was 110 % of control and the T/C [2] was 19 % of control and 20 % of control.
In the case of COc1cc([C@@H]2c3cc4c(cc3[C@@H](OC3OC5CO[C@@H](c6cccs6)OC5C(O)C3O)[C@H]3COC(=O)[C@H]23)OCO4)cc(OC)c1O (some centres undefined), the T/C (dose: 8.75 mg/kg/injection, schedule: Q01DX010 (ip), vehicle: saline) is reported as 82 % of control and the T/C (dose: 17.5 mg/kg/injection, schedule: Q01DX010 (ip), vehicle: saline) is reported as 74 % of control.
For COc1cccc2c1C(=O)C1=C(C2=O)c2c(O)cc(CO)cc2C(O)C1O (centres undefined), the T/C (dose: 6.25 mg/kg/injection, schedule: Q04DX003 (ip), vehicle: other) was 84 % of control, the T/C (dose: 12.5 mg/kg/injection, schedule: Q04DX003 (ip), vehicle: other) was 102 % of control and the T/C (dose: 25.0 mg/kg/injection, schedule: Q04DX003 (ip), vehicle: other) was 96 % of control.
With CC1=C(/C=C/C(C)=C/C=C/C(C)=C/C=O)C(C)(C)CCC1 the T/C (dose: 150.0 mg/kg/injection, schedule: Q04DX003 (sc), vehicle: saline with Tween-80) was 84 % of control, the T/C [6] was 39 % of control and the T/C [7] was 51 % of control. For the same compound, the T/C [8] was 34 % of control.
In the case of NC1=NC(=O)N2CC12 (centres undefined), the T/C (dose: 50.0 mg/kg/injection, schedule: Q04DX003 (sc), vehicle: saline) is reported as 106 % of control, the T/C (dose: 100.0 mg/kg/injection, schedule: Q04DX003 (sc), vehicle: saline) is reported as 116 % of control and the T/C (dose: 200.0 mg/kg/injection, schedule: Q04DX003 (sc), vehicle: saline) is reported as 86 % of control.
In the case of O=C(/C=C/c1cccnc1)/C=C/c1cccnc1, the T/C (dose: 50.0 mg/kg/injection, schedule: Q04DX003 (ip), vehicle: Klucel (hydroxypropylcellulose) (HPC)) is reported as 67 % of control.
With C[n+]1ccc2cc(N)c3c4ccccc4sc3c2c1 the T/C (dose: 12.5 mg/kg/injection, schedule: Q04DX003 (sc), vehicle: saline with Tween-80) was 96 % of control and the T/C (dose: 25.0 mg/kg/injection, schedule: Q04DX003 (sc), vehicle: saline with Tween-80) was 100 % of control.
